Data as given in patent US20160193328A1, “Immunoadjuvant Compositions and uses Thereof” (INSERM (INSTITUT NATIONAL DE LA SANTÉ ET DE LA RECHERCHE …, priority 2013, published 2016).

Legend:
1W1K-specific Tfh cells = assay: 1W1K-specific CD4+ T cell and Tfh cell response in draining lymph nodes after immunisation (pMHCII tetramer flow cytometry); format: in vivo, C57Bl/6 mice; conditions: for 1W1K-specific Tfh cells in the dLN / amount of 1W1K-specific CD4+ T cells / total number of CD4+ T cells in the dLN: TLR agonist added to IFA; for 1W1K-specific Tfh cells in the dLN: 40 μg 1W1K s.c., 9 days, FIG. 1A; for amount of 1W1K-specific CD4+ T cells / total number of CD4+ T cells in the dLN: 1W1K s.c., peak of primary response, versus IFA only
Description: (§1) Mice were either i.p. injected or immunized s.c. at the base of tail with 40 μg of peptide 1W1K, 100 μg of OVA, 200 μg of Ea-FITC in the indicated adjuvant with or without soluble TLR agonist, in a final volume of 200 µL. To target moDC, mice were immunised s.c. with 1.2×1010 beads (which correspond to 40 μg Ea52-68, 1W1K or 100 μg OVA) in indicated adjuvant with or without soluble TLR agonist. At indicated times post-immunisation, spleen or dLN (inguinal and periaortic) were collected and cells were stained for flow cytometry analysis.
To block IL-6 signalling, i.p. injections of 100 μg D7715A7 mAb (anti-IL-6R[…], eBioscience) or Rat IgG2b isotype control were performed at day −1 and +4 post-immunisation. To deplete mice of monocytes, i.v. injections of 250 μL of clodronate liposomes or control PBS liposomes (clodronateliposome.com) were performed from day −1 every second day.
For population analysis, dLN were harvested from mice and single cell suspensions were prepared in PBS with 2% FCS, 5 mM EDTA. For DC analysis, lymphoid organs were dissociated using 125 μg/mL LiberaseTL (Roche) and 40 μg/mL DNAase I (Sigma-Aldrich) at 37° C. for 20 min. 1×10^8 cells/ml were labelled at 4° C. for 45 min with mAbs: Reagents from BD Pharmingen [AlexaFluor488-K112-91 (anti-Bcl-6); PE-M1/70 (anti-CD11b), PE-281-2 (anti-CD138); Cy5PE-M1/70 (anti-CD11b); APC-2G8 (anti-CXCR5); V500-500A2 (anti-CD3); Pacific Blue-53-6.7 (anti-CD8α); Biotin-Jo2 (anti-CD95); Biotin-2G8 (anti-CXCR5)], Reagents from eBioscience [FITC-eBio1D3 (anti-CD19), FITC-RA3-6B2 (anti-B220), FITC-RM4-5 (anti-CD4); PE-MAR-1 (anti-FceR1), PE-205yekta (anti-CD205), PE-2E7 (anti-CD 103), PE-MP5-20F3 (anti-IL-6); Cy5PE-RM4-5 (anti-CD4); Cy7PE-N418 (anti-CD11c), Cy7PE-53-6.7 (anti-CD8α); Cy5.5PE-anti-CD19, Cy5.5PE-HK1.4 (anti-Ly-6c); APC-N418; AlexaFluor647 anti-GL-7; AlexaFluor700-MEL-14 (anti-CD62L), AlexaFluor700-eBio1D3, AlexaFluor700-IM7 (anti-CD44); APCeFluor780-IM7, APCeFluor780-BM8 (anti-F4/80), APCeFluor780-RA3-6B2; eFluor450-11-26c (anti-IgD), eFluor450-MEL-14; biotin-Y-Ae], reagent from R&D PE-475301(anti-CCR2). Before data collection […] propidium iodide (PI) was added to samples. 1W1K-IAb tetramer was obtained from NIH Tetramer core facility. For IL-6 intracellular staining cell suspensions were incubated for 4 hr at 37° C. in the presence of 3 μg/mL Golgi Plug (BD Bioscience) and 4 μM Monensin, fixed and permabilised using BD Fixation/Permeabilisation kit. Before permeabilisation cells were stained with Fixable Viability Dye eFluor450 or eFluor660 (eBioscience). Data were collected on a BD LSRII™ (BD Biosciences) and analysed using FlowJo software (Tree Star).
6-8-wk-old C57Bl/6 mice were irradiated (0.85 Gy) the day before i.v. injection of 1×10^7 T cell-depleted BM cells that consisted of a mix of 70% from CD11c-DTR or JHT supplemented with 30% from TLR9KO, Myd88KO, TRIFKO, IL-6K0 or wt CD45.1 C57Bl/6 mice. After 8 wk, the chimeras with CD11c-DTR BM were i.p. treated every second day with 4 ng/g body weight DTx (Sigma-Aldrich) and 1 day before immunisation with 20 ng/mouse s.c. Treated animals were then s.c. immunised either with 1W1K or OVA as described above.
The combination of adjuvant to a peptide favours robust T-dependent B cell immunity. To test whether addition of TLR agonists to other vaccine adjuvant could have a synergistic effect on the induced immune response, we examined the I-Ab restricted murine CD4+ T cell response to a peptide variant ([…], called 1W1K peptide hereafter, SEQ ID NO:1) of the I-E alpha chain immunodominant peptide 52-68 (Ea52-68) in C57Bl/6 mice. We followed the 1W1K-specific CD4+ T cells with the corresponding pMHCII tetramer in the draining lymph nodes (dLN) after sub-cutaneous (s.c.) immunisation in Incomplete Freund's adjuvant (IFA). At the peak of the effector CD4+ T cell response, we detected the CD44+ and pMHCII tetramer+1W1K-specific CD4+ T cells in the dLN (data not shown). […]

OVA-specific B cells = assay: OVA-specific B cell response in dLN after immunisation (flow cytometry); format: in vivo, C57Bl/6 mice; conditions: TLR agonist added to IFA; 100 μg OVA s.c.; 14 days; FIG. 2A
Description: as §1
For population analysis, dLN were harvested from mice and single cell suspensions were prepared in PBS with 2% FCS, 5 mM EDTA. For DC analysis, lymphoid organs were dissociated using 125 μg/mL LiberaseTL (Roche) and 40 μg/mL DNAase I (Sigma-Aldrich) at 37° C. for 20 min. […] Data were collected on a BD LSRII™ (BD Biosciences) and analysed using FlowJo software (Tree Star).
We hypothesized that an increase in the CD4+ T cell help and specifically an increase of the Tfh cells, the critical regulators of B cell responses, could result in a greater B cell response to the Ag after addition of TLR agonist to another adjuvant. The murine B cell response to ovalbumin (OVA) in wt animals is a valuable immunisation model that can be monitored via the polyclonal Ig repertoires. OVA-specific B cells can be detected by flow cytometry as CD3-IgD− cells that bind specifically to A1exa488-conjugated OVA (OVA+) (data not shown). […] Using this strategy, we determined if addition of TLR agonist to IFA impacts OVA-specific B cell responses in vivo. […]

OVA-specific IgG = OVA-specific IgG in serum by ELISA after immunisation; format: in vivo, C57Bl/6 mice
IL-6 = IL-6 in serum of immunised animals (IL-6 ELISA kit); format: in vivo, mice; conditions: 4 hours after i.p. injection; 1W1K in Alum
[1] = BM chimeras (JHT + MyD88KO) lacking MyD88 signalling in B cells, added to IFA

poly(I:C) was tested, and the “1W1K-specific Tfh cells in the dLN” value (1W1K-specific Tfh cells) was “had no enhancing effect”, the “amount of 1W1K-specific CD4+ T cells” value (1W1K-specific Tfh cells) was “did not statistically change” and the “total number of CD4+ T cells in the dLN” value (1W1K-specific Tfh cells) was “did not statistically change”.

With lipopolysaccharide [LPS] the “enhancing effect on 1W1K-specific Tfh cells” value (1W1K-specific Tfh cells; [1]) was “also observed”, the “1W1K-specific Tfh cells in the dLN” value (1W1K-specific Tfh cells) was “induced an increase” and the “amount of 1W1K-specific CD4+ T cells” value (1W1K-specific Tfh cells) was “did not statistically change”. For the same substance, the “total number of CD4+ T cells in the dLN” value (1W1K-specific Tfh cells) was “did not statistically change”, the “1W1K-specific Tfh cell differentiation” value (1W1K-specific Tfh cells; added to Alum, i.p., JHT mice (no functional B cells), 5 days) was “enhanced” and the “increase of 1W1K-specific Tfh response” value (1W1K-specific Tfh cells; chimeras (CD11c-DTR + MyD88KO), DTx: MyD88 signalling in CD11c+ cells impaired, FIG. 3B) was “not observed”. The “OVA-specific GC-B cells” value (OVA-specific B cells) was “increased”, the “OVA-specific PC” value (OVA-specific B cells) was “increased” and the “overall OVA-specific B cells” value (OVA-specific B cells) was “increased”. The “enhancing effect on OVA-specific IgG” value (OVA-specific IgG; [1]) was “also observed”, the “circulating OVA-specific IgG” value (OVA-specific IgG; IFA supplemented with TLR agonist, 14 days, FIG. 2B) was “significant increase” and the “IL-6 in the serum, sensitised JHT animals compared to sensitised wt mice” value (IL-6) was “significant decrease”.
